In experiment [1] the target is T1, IDO1 (Homo sapiens (Human), UniProt P14902). Description: IDO1 Enzyme Assay. The following applies: HIS-tagged recombinant IDO1, 40 nM.
In experiment [2] the target is T1, IDO1. Description: IDO1 Cellular Assay in Hela Cells Stimulated with IFNγ. It counts as cell-based. Conditions: Hela cells stimulated with IFNγ 100 ng/mL; read-out: IDO1 HELA Cell Assay, IC50. How it is done: IDO1 Cellular Assay in Hela Cells Stimulated with IFNγ
Hela cells were cultured in complete Hela culture medium (90% EMEM, 10% heat-inactivated fetal bovine serum) and expanded to about 1×10^9 cells. The cells were then collected and frozen down at 10×10^6 cells/vial in 1 mL frozen medium (90% complete Hela culture medium, 10% DMSO)
Frozen Hela cells were thawed and transferred into Hela assay medium (99% complete Hela culture medium, 1% Pen/Strep) with 20 mL medium/vial of cells. The cells were spun down at 250 g in a table top centrifuge for 5 min and suspended in same volume of Hela assay medium. The cells were then counted and adjusted to a density of 2×10^5 cells/ml in Hela assay medium. Sterile L-tryptophan were added to the cells with final concentration of 300 uM L-tryptophan. A small aliquot (2 mL/plate) of Hela cells were set aside and were not treated with IFNγ, to serve as the Max-E control. The rest of Hela cells were added with sterile IFNγ (Cat #285-IF, R & D systems) with a final concentration of 100 ng/mL.
Hela cells with and without IFNγ were dispensed to the respective wells of 384-well assay plates containing the compounds. The plates were incubated for about 48 hours at a 37° C., 5% CO2 incubator. […] The plates were centrifuged for 1 min at 200×g. The resulting fluorescence was measured in a Spectramax plate reader (Molecular Devices) with a 400 nm excitation filter and a 510 nm emission filter.

Setting [3] is: read-out: IDO1 Enzyme Assay, IC50.

T1 sequence (P14902 whole entry): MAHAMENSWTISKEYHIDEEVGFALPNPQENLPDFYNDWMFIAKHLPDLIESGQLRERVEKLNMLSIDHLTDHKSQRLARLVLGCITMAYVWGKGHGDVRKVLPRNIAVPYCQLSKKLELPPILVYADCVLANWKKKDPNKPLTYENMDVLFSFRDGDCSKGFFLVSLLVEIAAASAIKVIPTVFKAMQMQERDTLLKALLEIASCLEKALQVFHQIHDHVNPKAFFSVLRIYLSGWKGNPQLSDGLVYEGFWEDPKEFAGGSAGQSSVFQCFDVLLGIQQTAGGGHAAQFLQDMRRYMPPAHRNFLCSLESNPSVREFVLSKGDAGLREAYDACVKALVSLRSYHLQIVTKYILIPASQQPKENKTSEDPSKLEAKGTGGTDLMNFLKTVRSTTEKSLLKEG

As a reminder, the IC50 is the point on the concentration scale where inhibition reaches its midpoint. On to `O=C(CSc1nonc1/C(=N/O)Nc1ccc(F)c(Br)c1)NCC(O)CN1CCOCC1` (single isomer, unassigned) [Example 206, 2-((4-(N-(3-bromo-4-fluorophenyl)-N′-hydroxycarbamimidoyl)-1,2,5-oxadiazol-3-yl)thio)-N-(2-hydroxy-3-morpholinopropyl)acetamide], for which the IC50 on IDO1 [1] (IDO1 Enzyme Assay, IC50, nM) turned out to be 39.3 nM; on IDO1 [2], 111 nM.
Taken in the same sequence, the figures for `O=C(CSc1nonc1/C(=N/O)Nc1ccc(F)c(Br)c1)NCC(O)CN1CCOCC1` (single isomer, unassigned) [Example 207, 2-((4-(N-(3-bromo-4-fluorophenyl)-N′-hydroxycarbamimidoyl)-1,2,5-oxadiazol-3-yl)thio)-N-(2-hydroxy-3-morpholinopropyl)acetamide] were 43.1 nM and 140 nM.
Regarding `CC(=O)NCCOc1nonc1/C(=N/O)Nc1ccc(F)c(Br)c1` [Example 5, N-(2-((4-(N-(3-bromo-4-fluorophenyl)-N′-hydroxycarbamimidoyl)-1,2,5-oxadiazol-3-yl)oxy)ethyl)acetamide], the IC50 was 47.6 nM on IDO1 [1] (setting [3]) and 94 nM at IDO1 [2].
Taken in the same sequence, the figures for `O=C(COc1nonc1/C(=N/O)Nc1ccc(F)c(Br)c1)NCCO` [Example 6, 2-((4-(N-(3-Bromo-4-fluorophenyl)-N′-hydroxycarbamimidoyl)-1,2,5-oxadiazol-3-yl)oxy)-N-(2-hydroxyethyl)acetamide] were 44 nM and 144 nM.
With `CC(C)(CO)NC(=O)CSc1nonc1/C(=N/O)Nc1ccc(F)c(Br)c1` [Example 27, 2-((4-(N-(3-bromo-4-fluorophenyl)-N′-hydroxycarbamimidoyl)-1,2,5-oxadiazol-3-yl)thio)-N-(1-hydroxy-2-methylpropan-2-yl)acetamide], the IC50 came to 29.8 nM on IDO1 [1] (setting [3]) and 17.6 nM on IDO1 [2].
As to `CC(C)(O)CNC(=O)CSc1nonc1/C(=N/O)Nc1ccc(F)c(Br)c1` [Example 28, 2-((4-(N-(3-bromo-4-fluorophenyl)-N′-hydroxycarbamimidoyl)-1,2,5-oxadiazol-3-yl)thio)-N-(2-hydroxy-2-methylpropyl)acetamide], the IC50 on IDO1 [1] (setting [3]) was found to be 38 nM; at IDO1 [2], 65.9 nM.
Taken in the same sequence, the figures for `O=S1(=O)NC[C@H](CSc2nonc2/C(=N/O)Nc2ccc(F)c(Cl)c2)N1` [Example 32, (R)—N-(3-chloro-4-fluorophenyl)-4-(((1,1-dioxido-1,2,5-thiadiazolidin-3-yl)methyl)thio)-N′-hydroxy-1,2,5-oxadiazole-3-carboximidamide] were 32 nM and 13.1 nM.
Take `O=S1(=O)NC[C@H](CSc2nonc2/C(=N/O)Nc2ccc(F)c(Br)c2)N1` [Example 33, (R)—N-(3-bromo-4-fluorophenyl)-4-(((1,1-dioxido-1,2,5-thiadiazolidin-3-yl)methyl)thio)-N′-hydroxy-1,2,5-oxadiazole-3-carboximidamide]: the IC50 at IDO1 [1] (setting [3]) was determined as 53.5 nM; on IDO1 [2] it was 26.3 nM.
Taken in the same sequence, the figures for `CC(C)(O)[C@@H](O)CSc1nonc1C(=NO)Nc1ccc(F)c(C#N)c1` [Example 38, (R)—N-(3-cyano-4-fluorophenyl)-4-((2,3-dihydroxy-3-methylbutyl)thio)-N′-hydroxy-1,2,5-oxadiazole-3-carboximidamide] were 144 nM and 118 nM.
Taken in the same sequence, the figures for `CC(C)(O)[C@H](O)CSc1nonc1C(=NO)Nc1ccc(F)c(C#N)c1` [Example 39, (S)—N-(3-cyano-4-fluorophenyl)-4-((2,3-dihydroxy-3-methylbutyl)thio)-N′-hydroxy-1,2,5-oxadiazole-3-carboximidamide] were 118 nM and 87.6 nM.
Taken in the same sequence, the figures for `O=c1cc(C(F)(F)F)cc(CSc2nonc2/C(=N/O)Nc2ccc(F)c(Br)c2)[nH]1` [Example 88, N-(3-bromo-4-fluorophenyl)-N′-hydroxy-4-({[6-oxo-4-(trifluoromethyl)-1,6-dihydropyridin-2-yl]methyl}sulfanyl)-1,2,5-oxadiazole-3-carboximidamide] were 173 nM and 174 nM.
For `O=c1c(NCCSc2nonc2/C(=N/O)Nc2ccc(F)c(Br)c2)c(NCC2CC2)c1=O` [Example 89, N-(3-bromo-4-fluorophenyl)-4-{[2-({2-[(cyclopropylmethyl)amino]-3,4-dioxocyclobut-1-en-1-yl}amino)ethyl]sulfanyl}-N′-hydroxy-1,2,5-oxadiazole-3-carboximidamide], the IC50 at IDO1 [1] (setting [3]) was determined as 39 nM.
Same read-out and setting: the same measure for `O=c1c(NCCO)c(NCCSc2nonc2/C(=N/O)Nc2ccc(F)c(Br)c2)c1=O` [Example 90, N-(3-bromo-4-fluorophenyl)-N′-hydroxy-4-{[2-({2-[(2-hydroxyethyl)amino]-3,4-dioxocyclobut-1-en-1-yl}amino)ethyl]sulfanyl}-1,2,5-oxadiazole-3-carboximidamide]: 29.3 nM.
As for `O=C(CSc1nonc1C(=NO)Nc1ccc(F)c(Br)c1)N1CCC[C@H]1CO` [Example 134, N-(3-bromo-4-fluorophenyl)-N′-hydroxy-4-({2-[(2S)-2-(hydroxymethyl)pyrrolidin-1-yl]-2-oxoethyl}sulfanyl)-1,2,5-oxadiazole-3-carboximidamide], at IDO1 [1] (IDO1 Enzyme Assay, IC50, nM), the IC50 stood at 120 nM.
The same measure, in the same setting: the same measure for `O=C(CSc1nonc1C(=NO)Nc1ccc(F)c(Br)c1)N1CCC[C@@H]1CO` [Example 135, N-(3-bromo-4-fluorophenyl)-N′-hydroxy-4-({2-[(2R)-2-(hydroxymethyl)pyrrolidin-1-yl]-2-oxoethyl}sulfanyl)-1,2,5-oxadiazole-3-carboximidamide]: 106 nM.
On the same count and under the same terms, the same measure for `O=C(CSc1nonc1C(=NO)Nc1ccc(F)c(Br)c1)N1CCCC1` [Example 136, N-(3-bromo-4-fluorophenyl)-N′-hydroxy-4-[(2-oxo-2-pyrrolidin-1-ylethyl)sulfanyl]-1,2,5-oxadiazole-3-carboximidamide]: 112 nM; for `O=C(CSc1nonc1C(=NO)Nc1ccc(F)c(Br)c1)NCCF` [Example 137, 2-({4-[N-(3-bromo-4-fluorophenyl)-N′-hydroxycarbamimidoyl]-1,2,5-oxadiazol-3-yl}sulfanyl)-N-(2-fluoroethyl)acetamide]: 34.9 nM.
`O=C(CSc1nonc1/C(=N/O)Nc1ccc(F)c(Br)c1)N1CCOCC1` [Example 193, N-(3-bromo-4-fluorophenyl)-N′-hydroxy-4-[(2-morpholin-4-yl-2-oxoethyl)sulfanyl]-1,2,5-oxadiazole-3-carboximidamide]: the IC50 on IDO1 [1] (setting [3]) is 73.8 nM; on IDO1 [2] it was 143 nM.
Taken in the same sequence, the figures for `NS(=O)(=O)N[C@H](CO)CSc1nonc1/C(=N/O)Nc1ccc(F)c(Br)c1` [Example 194, N-(3-bromo-4-fluorophenyl)-N′-hydroxy-4-{[(2R)-3-hydroxy-2-(sulfamoylamino)propyl]sulfanyl}-1,2,5-oxadiazole-3-carboximidamide] were 51 nM and 47.1 nM.
Taken in the same sequence, the figures for `O=C(CSc1nonc1/C(=N/O)Nc1ccc(F)c(Br)c1)N1C[C@@H](O)[C@@H](O)C1` [Example 195, N-(3-bromo-4-fluorophenyl)-4-((2-((3S,4R)-3,4-dihydroxypyrrolidin-1-yl)-2-oxoethyl)thio)-N′-hydroxy-1,2,5-oxadiazole-3-carboximidamide] were 92.5 nM and 342 nM.
For the compound `O=C(CSc1nonc1/C(=N/O)Nc1ccc(F)c(Br)c1)N1CC[C@H](O)[C@@H](O)C1` [Example 196, N-(3-bromo-4-fluorophenyl)-4-((2-((3S,4S)-3,4-dihydroxypiperidin-1-yl)-2-oxoethyl)thio)-N′-hydroxy-1,2,5-oxadiazole-3-carboximidamide], the figures for the IC50 at IDO1 [1] (setting [3]) and at IDO1 [2] were 62.3 nM and 132 nM, respectively.
Take `C[C@H](CO)NC(=O)CSc1nonc1/C(=N/O)Nc1ccc(F)c(Br)c1` [Example 197, (R)-2-((4-(N-(3-bromo-4-fluorophenyl)-N′-hydroxycarbamimidoyl)-1,2,5-oxadiazol-3-yl)thio)-N-(1-hydroxypropan-2-yl)acetamide]: the results for the IC50 at IDO1 [1] (setting [3]) and on IDO1 [2] were 44.9 nM and 15.3 nM, respectively.
Take `O=C(CSc1nonc1/C(=N/O)Nc1ccc(F)c(Br)c1)N[C@H]1CCOC[C@H]1O` [Example 198, 2-((4-(N-(3-bromo-4-fluorophenyl)-N′-hydroxycarbamimidoyl)-1,2,5-oxadiazol-3-yl)thio)-N-((3S,4S)-3-hydroxytetrahydro-2H-pyran-4-yl)acetamide]: the IC50 at IDO1 [1] (setting [3]) turned out to be 56 nM; at IDO1 [2] it was 149 nM.
Taken in the same sequence, the figures for `CNS(=O)(=O)NC(=O)CSc1nonc1/C(=N/O)Nc1ccc(F)c(Br)c1` [Example 199, 2-((4-(N-(3-bromo-4-fluorophenyl)-N′-hydroxycarbamimidoyl)-1,2,5-oxadiazol-3-yl)thio)-N-(N-methylsulfamoyl)acetamide] were 57.8 nM and 508 nM.
Taken in the same sequence, the figures for `C[C@H](O)CNC(=O)CSc1nonc1/C(=N/O)Nc1ccc(F)c(Br)c1` [Example 200, (S)-2-((4-(N-(3-bromo-4-fluorophenyl)-N′-hydroxycarbamimidoyl)-1,2,5-oxadiazol-3-yl)thio)-N-(2-hydroxypropyl)acetamide] were 29.9 nM and 14.9 nM.

The values are drawn from patent publication US10538497B2, “Compounds as indoleamine 2,3-dioxygenase inhibitors” (Merck Sharp & Dohme Corp., priority 2015, dated 2020).
